# Key:
# [1] = system: staphyloxanthin pigment formation; conditions: read-out: carotenoid pigment formation in cells IC50; cited from earlier work
# S. aureus CrtM [2] = target: T1, S. aureus CrtM (Staphylococcus aureus, UniProt A9JQL9); conditions: read-out: CrtM IC50; cited from earlier work
# S. aureus CrtM [3] = target: T1, S. aureus CrtM; experiment: S. aureus CrtM; assay type: biochemical
# S. aureus UPPS = target: T2, S. aureus UPPS (Staphylococcus aureus, UniProt P60477); experiment: S. aureus UPPS inhibition; assay type: biochemical
# T2 sequence (P60477 1-256): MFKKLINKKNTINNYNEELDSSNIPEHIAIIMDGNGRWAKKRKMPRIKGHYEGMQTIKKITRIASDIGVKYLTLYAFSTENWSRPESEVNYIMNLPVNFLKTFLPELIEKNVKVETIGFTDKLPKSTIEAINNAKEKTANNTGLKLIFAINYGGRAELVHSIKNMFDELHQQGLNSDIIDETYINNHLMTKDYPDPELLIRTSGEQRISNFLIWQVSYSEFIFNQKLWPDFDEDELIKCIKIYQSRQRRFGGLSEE
# MCF-7 = experiment: Toxicity against human cell line; assay type: cell-based
# E. coli = E. coli cell growth inhibition; assay type: cell-based; conditions: DH5α, K12
# [4] = system: USA300 (MRSA) strain of S. aureus; experiment: S. aureus cell growth inhibition; assay type: cell-based; conditions: Staphylococcus aureus, MRSA|USA300, read-out: MIC90 against S. aureus
# bacteria = conditions: background statement, no reference given; cited from earlier work
# FPPS = conditions: background statement, no reference given; cited from earlier work
# T1 sequence (A9JQL9 whole entry): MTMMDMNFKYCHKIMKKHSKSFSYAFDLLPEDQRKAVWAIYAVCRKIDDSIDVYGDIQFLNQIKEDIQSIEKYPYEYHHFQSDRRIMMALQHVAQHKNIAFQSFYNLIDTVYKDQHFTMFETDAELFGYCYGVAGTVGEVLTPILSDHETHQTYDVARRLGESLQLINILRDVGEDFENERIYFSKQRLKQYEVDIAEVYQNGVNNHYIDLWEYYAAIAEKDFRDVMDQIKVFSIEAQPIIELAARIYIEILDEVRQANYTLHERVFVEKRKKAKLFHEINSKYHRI
structure (smiles),measurement,setting,value
O=P(O)(O)C(CCCc1cccc(Oc2ccccc2)c1)S(=O)(=O)O (stereo not shown) [Compound 3],IC50,[1],~110 nM
same,IC50,S. aureus CrtM [2],~7900 nM
CCCCCCCCCCOc1cccc(Cn2ccc(O)c(C(=O)O)c2=O)c1 [Compound 42],"CrtM inhibition, in words",S. aureus CrtM [3],no activity
CCCCCCCCCCOc1cccc(C(=O)/C=C(\O)C(=O)O)c1 [Compound 44],Ki,S. aureus UPPS,230 nM
CCCCCCCCOc1ccc(C(=O)/C=C(\O)C(=O)O)cc1 [Compound 45],activity against human cell lines,MCF-7,very little activity
same,activity against E. coli,E. coli,very little activity
same,MIC90,[4],0.25 to 0.5 µg/mL
same,Ki,S. aureus UPPS,670 nM
O=P(O)(O)C(O)(Cn1ccnc1)P(=O)(O)O [zoledronate],antibacterial activity,bacteria,little antibacterial activity
same,FPPS inhibition potency,FPPS,"potent, low nM inhibitors"
